Data taken from publication PMC7792806, “Development of Second Generation Activity-Based Chemical Probes for Sirtuins” (Molecules, 2020).
pIC50: −log10 of the molar value.

Target: T1, SIRT1 (Homo sapiens, UniProt Q96EB6)
T1 construct: Plasmids of SIRT1 (full length); made in house
T1 sequence (Q96EB6 1-747): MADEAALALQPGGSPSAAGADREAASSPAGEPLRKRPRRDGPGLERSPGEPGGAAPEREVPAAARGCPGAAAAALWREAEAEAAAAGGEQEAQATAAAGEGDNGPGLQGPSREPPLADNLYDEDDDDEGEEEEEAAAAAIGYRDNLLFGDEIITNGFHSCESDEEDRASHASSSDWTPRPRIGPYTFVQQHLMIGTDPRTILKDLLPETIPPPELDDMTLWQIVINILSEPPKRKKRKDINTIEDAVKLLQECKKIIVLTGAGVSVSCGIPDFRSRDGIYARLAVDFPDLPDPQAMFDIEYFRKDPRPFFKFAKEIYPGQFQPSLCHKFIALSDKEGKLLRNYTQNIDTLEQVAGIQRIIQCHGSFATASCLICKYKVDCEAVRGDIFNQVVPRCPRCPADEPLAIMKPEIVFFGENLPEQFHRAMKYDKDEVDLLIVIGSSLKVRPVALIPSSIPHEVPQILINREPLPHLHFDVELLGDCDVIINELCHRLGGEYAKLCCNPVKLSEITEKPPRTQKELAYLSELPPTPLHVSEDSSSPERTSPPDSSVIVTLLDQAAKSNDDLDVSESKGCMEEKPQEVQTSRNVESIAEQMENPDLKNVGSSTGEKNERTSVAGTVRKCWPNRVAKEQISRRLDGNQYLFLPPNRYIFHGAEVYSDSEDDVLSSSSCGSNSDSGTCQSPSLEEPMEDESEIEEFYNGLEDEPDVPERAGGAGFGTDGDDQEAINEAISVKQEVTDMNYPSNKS
Assay: Sirtuin inhibition assay (HPLC), SIRT1
Format: biochemical
Conditions: substrate p53K382Ac; 500 μM NAD+, 500 μM peptide, 10 μM sirtuin, pH 7.5, 37 °C
Experimental: Plasmids of SIRT1 (full length), SIRT2 (38-356), SIRT3 (102-399), and SIRT5 (34-302) were generous gifts from Dr. Hening Lin (Cornell University, Ithaca, NY, USA). SIRT6 was a gift from Cheryl Arrowsmith (Addgene plasmid #28271). The proteins were expressed and purified according to previously published protocols. The identity of the protein was confirmed by tryptic digestion followed by LC-MS/MS analysis performed at the Vermont Genetic Network (VGN) Proteomics Facility. Protein concentrations were determined by Bradford assay (Thermo Fisher Scientific, Rockford, IL, USA).
A typical reaction contained 500 μM NAD^+ and 500 μM peptide substrate (H3K9Ac for SIRT2, SIRT3 and SIRT6, p53K382Ac for SIRT1 and SIRT5) of varying concentrations of a small molecule probe in 100 mM phosphate buffer pH 7.5. The reactions were initiated by the addition of 10 μM of sirtuin and were incubated at 37 °C before being quenched by 8 μL of 10% TFA. The incubation time was controlled so that the conversion of substrate was less than 15%. The samples were then injected on an HPLC fitted to a Macherey-Nagel Nucleosil C18 column. NAD^+, NAM and AADPR (acetyl-ADP-ribose) peaks were resolved using a gradient of 0 to 20% methanol in 20 mM ammonium acetate. Chromatograms were analyzed at 260 nm. Reactions were quantified by integrating areas of peaks corresponding to NAD^+ and AADPR. Rates were plotted as a function of small molecule probe concentration, and points were fitted to the following equation:ν(%) = ν0(%) − [ν0(%)(10^x)/(10^x + IC50)](1) where ν(%) represents the turnover rate expressed as percent enzymatic activity remaining, and ν0(%) represents the uninhibited turnover rate expressed as an enzymatic activity of 100%. The variable x represents the log[probe] in nanomolar. IC50 values were derived from this equation.

In the case of `C#CCCCC1(CCC(=O)N[C@@H](CCCCNC(=S)CCC(=O)O)C(=O)N[C@@H](C)C(=O)N[C@@H](C)C(=O)OC)N=N1` [Probe 2B], the pIC50 was < 2.70.
